ChEMBL document CHEMBL5528066, “Discovery of Novel N-(Anthracen-9-ylmethyl) Benzamide Derivatives as ZNF207 Inhibitors Promising in Treating Glioma” (J Med Chem, 2024)
Calls of active or inactive are those of the source. The rule behind the calls is not given here.

Columns and labels:
H4 [1] = experiment: Antiproliferative activity against human H4 cells assessed as inhibition of cell growth measured after 72 hrs by CCK-8 assay; type: functional, cell-based; conditions: H4, 72 h
[2] = biological target: T1, BUB3-interacting and GLEBS motif-containing protein ZNF207 (Homo sapiens, UniProt O43670); experiment: Binding affinity to ZNF207 in human H4 cells assessed as thermal stabilization by measuring increase in melting temperature at 30 uM incubated for 3 hrs by CETSA; type: cell-based
[3] = biological target: T1, BUB3-interacting and GLEBS motif-containing protein ZNF207; experiment: Binding affinity to ZNF207 in human H4 cells assessed as thermal stabilization by measuring melting temperature at 30 uM incubated for 3 hrs by CETSA (reference value: 48.9 degreeC); type: cell-based
[4] = biological target: T1, BUB3-interacting and GLEBS motif-containing protein ZNF207; experiment: Binding affinity to ZNF207 in human U-251MG cells assessed as thermal stabilization by measuring melting temperature at 30 uM incubated for 3 hrs by CETSA (reference value: 48.7 degreeC); type: cell-based
H4 [5] = experiment: Inhibition of sphere formation in human H4 cells incubated for 168 hrs by microscopic analysis; type: functional, cell-based; conditions: H4, 168 h
LN-229 [6] = experiment: Inhibition of sphere formation in human LN-229 cells incubated for 168 hrs by microscopic analysis; type: functional, cell-based; conditions: LN-229, 168 h
U-251 [7] = experiment: Inhibition of sphere formation in human U-251MG cells incubated for 168 hrs by microscopic analysis; type: functional, cell-based; conditions: U-251, 168 h
U-251 [8] = experiment: Inhibition of colony formation in human U-251MG cells assessed as reduction in number of cell clones treated on day 1 and measured after 14 days by crystal violet staining based microscopic analysis; type: functional; conditions: dose 0.625-5 µM, time 14.0 day
H4 [9] = experiment: Inhibition of sphere formation in human H4 cells assessed as fold reduction in sphere initiating frequency at 4 uM incubated for 10 days by microscopic analysis relative to control; type: functional; conditions: time 10 day
LN-229 [10] = experiment: Inhibition of sphere formation in human LN-229 cells assessed as fold reduction in sphere initiating frequency at 1 uM incubated for 10 days by microscopic analysis relative to control; type: functional; conditions: time 10 day
LN-229 [11] = experiment: Inhibition of sphere formation in human LN-229 cells assessed as fold reduction in sphere initiating frequency at 2 uM incubated for 10 days by microscopic analysis relative to control; type: functional; conditions: time 10 day
Hs 683 [12] = experiment: Inhibition of sphere formation in human Hs 683 cells assessed as fold reduction in sphere initiating frequency at 4 uM incubated for 10 days by microscopic analysis relative to control; type: functional; conditions: time 10 day
Hs 683 [13] = experiment: Inhibition of sphere formation in human Hs 683 cells assessed as fold reduction in sphere initiating frequency at 8 uM incubated for 10 days by microscopic analysis relative to control; type: functional; conditions: time 10 day
U-251 [14] = experiment: Inhibition of sphere formation in human U-251MG cells assessed as fold reduction in sphere initiating frequency at 2 uM incubated for 10 days by microscopic analysis relative to control; type: functional; conditions: time 10 day
U-251 [15] = experiment: Inhibition of sphere formation in human U-251MG cells assessed as fold reduction in sphere initiating frequency at 4 uM incubated for 10 days by microscopic analysis relative to control; type: functional; conditions: time 10 day
U-251 [16] = experiment: Induction of apoptosis in human U-251MG cells at 1.25 uM incubated for 24 hrs by Annexin V-FITC/PI staining based flow cytometry analysis; type: functional, cell-based
Hs 683 [17] = experiment: Induction of apoptosis in human Hs 683 cells assessed as apoptotic cells at 2.5 uM incubated for 24 hrs by Annexin V-FITC/PI staining based flow cytometry analysis relative to control; type: functional
LN-229 [18] = experiment: Inhibition of cell migration in human LN-229 cells assessed as reduction in wound closure ability measured after 24 to 48 hrs by wound healing assay; type: functional, cell-based; conditions: dose 2.5-10 µM, time 24-48 hrs
H4 [19] = experiment: Downregulation of SOX2 protein expression in human H4 cells at 2 to 4 uM incubated for 48 hrs by Western blot analysis; type: functional, cell-based; conditions: dose 2-4 µM
[20] = Drug concentration in female Sprague-Dawley rat brain at 45 mg/kg, po measured after 8 hrs by LC-MS/MS analysis; type: ADME, organism-based; conditions: read-out: Ct
[21] = Drug concentration in female Sprague-Dawley rat lung at 45 mg/kg, po measured after 8 hrs by LC-MS/MS analysis; type: ADME, organism-based; conditions: read-out: Ct
[22] = Drug concentration in male Sprague-Dawley rat intestine at 45 mg/kg, po measured after 8 hrs by LC-MS/MS analysis; type: ADME, organism-based; conditions: read-out: Ct
MDR1 [23] = experiment: Apparent permeability across apical to basolateral side in MDCKII-MDR1 cells at 1 uM incubated for 2 hrs by LC-MS/MS analysis; type: ADME, cell-based, Canis lupus familiaris; conditions: dog, MDCK-MDR1
MDR1 [24] = experiment: Efflux ratio of apparent permeability across basolateral to apical side over apical to basolateral side in MDCKII-MDR1 cells at 1 uM incubated for 2 hrs by LC-MS/MS analysis; type: ADME, cell-based, Canis lupus familiaris; conditions: dog, MDCK-MDR1
[25] = Toxicity in male C57BL/6 mouse assessed as change in cellular structure of stomach at 45 mg/kg, po administered once a day for 2 weeks by H and E staining based analysis; type: organism-based; conditions: in vivo, 336 h
LN-229 [26] = experiment: Antitumor activity against human LN-229 cells xenografted in BALB/c nude mouse assessed as tumor growth inhibition at 15 to 45 mg/kg, po administered once a day and measured every 2 days for 49 days relative to control; type: functional; conditions: dose 15-45 mg/kg, time 49 day
LN-229 [27] = experiment: Inhibition of sphere formation in human LN-229 cells at 4 uM measured after 10 days in well containing 10000 cells by microscopic analysis; type: functional, cell-based; conditions: time 10.0 day
LN-229 [28] = experiment: Inhibition of sphere formation in human LN-229 cells at 8 uM measured after 10 days in well containing 10000 cells by microscopic analysis; type: functional, cell-based; conditions: time 10.0 day
LN-229 [29] = experiment: Inhibition of sphere formation in human LN-229 cells at 8 uM measured after 10 days in well containing 100 cells by microscopic analysis; type: functional, cell-based; conditions: time 10.0 day
LN-229 [30] = experiment: Inhibition of sphere formation in human LN-229 cells at 2 uM measured after 10 days in well containing 10 cells by microscopic analysis; type: functional, cell-based; conditions: time 10.0 day
LN-229 [31] = experiment: Inhibition of sphere formation in human LN-229 cells at 4 uM measured after 10 days in well containing 10 cells by microscopic analysis; type: functional, cell-based; conditions: time 10.0 day
LN-229 [32] = experiment: Inhibition of sphere formation in human LN-229 cells at 1 uM measured after 10 days in well containing 1 cells by microscopic analysis; type: functional, cell-based; conditions: time 10.0 day
LN-229 [33] = experiment: Inhibition of sphere formation in human LN-229 cells at 2 uM measured after 10 days in well containing 1 cells by microscopic analysis; type: functional, cell-based; conditions: time 10.0 day
LN-229 [34] = experiment: Inhibition of sphere formation in human LN-229 cells at 4 uM measured after 10 days in well containing 1 cells by microscopic analysis; type: functional, cell-based; conditions: time 10.0 day
Hs 683 [35] = experiment: Inhibition of sphere formation in human Hs 683 cells at 2 uM measured after 10 days in well containing 10000 cells by microscopic analysis; type: functional, cell-based; conditions: time 10.0 day
Hs 683 [36] = experiment: Inhibition of sphere formation in human Hs 683 cells at 4 uM measured after 10 days in well containing 10 cells by microscopic analysis; type: functional, cell-based; conditions: time 10.0 day
Hs 683 [37] = experiment: Inhibition of sphere formation in human Hs 683 cells at 2 uM measured after 10 days in well containing 1 cells by microscopic analysis; type: functional, cell-based; conditions: time 10.0 day
U-251 [38] = experiment: Inhibition of sphere formation in human U-251MG cells at 1 uM measured after 10 days in well containing 1000 cells by microscopic analysis; type: functional, cell-based; conditions: time 10.0 day
U-251 [39] = experiment: Inhibition of sphere formation in human U-251MG cells at 4 uM measured after 10 days in well containing 10 cells by microscopic analysis; type: functional, cell-based; conditions: time 10.0 day

T1 sequence (O43670 whole entry): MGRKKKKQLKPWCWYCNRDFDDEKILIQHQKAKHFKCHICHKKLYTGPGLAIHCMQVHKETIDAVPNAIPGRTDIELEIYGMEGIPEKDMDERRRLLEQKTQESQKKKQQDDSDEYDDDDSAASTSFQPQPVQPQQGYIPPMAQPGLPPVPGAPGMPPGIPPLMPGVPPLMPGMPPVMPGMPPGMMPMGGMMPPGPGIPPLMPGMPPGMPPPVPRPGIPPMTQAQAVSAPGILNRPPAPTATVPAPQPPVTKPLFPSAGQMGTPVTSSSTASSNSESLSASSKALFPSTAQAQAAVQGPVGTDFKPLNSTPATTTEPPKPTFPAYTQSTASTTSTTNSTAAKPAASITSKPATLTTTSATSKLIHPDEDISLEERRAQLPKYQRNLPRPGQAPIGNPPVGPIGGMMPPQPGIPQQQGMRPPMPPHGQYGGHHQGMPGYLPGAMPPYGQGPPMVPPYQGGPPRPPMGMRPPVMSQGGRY

- ΔTm [2]: 1.9 °C
- Tm [3]: 50.8 °C
- Tm [4]: 53.9 °C
- IC50 (H4 [5]): 740 nM
- IC50 (LN-229 [6]): 1230 nM
- IC50 (U-251 [7]): 870 nM
- concentration at 8 h [20]: 56.1 ng/g
- concentration at 8 h [21]: 6360 ng/g
- concentration at 8 h [22]: 688 ng/g
- Papp A→B at 2 h, 1 µM (MDR1 [23]): 1.26 ×10⁻⁶ cm/s
- efflux ratio at 2 h, 1 µM (MDR1 [24]): 3.25
SMILES: N#CC1(C(=O)NCCC2CCN(Cc3ccccc3)CC2)CC2(Br)c3ccccc3C1c1ccccc12 (racemic)
- IC50 (H4 [1]): 720 nM
- inhibition (U-251 [8]): Dose-Dependent Effect
- fold change (FC) (H4 [9]): 32.7
- fold change (FC) (LN-229 [10]): 4.37
- fold change (FC) (LN-229 [11]): 22.43
- fold change (FC) (Hs 683 [12]): 39.23
- fold change (FC) (Hs 683 [13]): 104.96
- fold change (FC) (U-251 [14]): 35.63
- fold change (FC) (U-251 [15]): 78.18
- Activity (U-251 [16]): Active
- Activity (Hs 683 [17]): ~20%
- inhibition (LN-229 [18]): Dose-Dependent Effect
- Activity (H4 [19]): Active
- Activity [25]: Non-Toxic
- TGI (LN-229 [26]): ~55%
- inhibition (LN-229 [27]): inactive
- inhibition (LN-229 [28]): inactive
- inhibition (LN-229 [29]): Active
- inhibition (LN-229 [30]): Active
- inhibition (LN-229 [31]): Active
- inhibition (LN-229 [32]): Active
- inhibition (LN-229 [33]): Active
- inhibition (LN-229 [34]): Active
- inhibition (Hs 683 [35]): inactive
- inhibition (Hs 683 [36]): Active
- inhibition (Hs 683 [37]): Active
- inhibition (U-251 [38]): inactive
- inhibition (U-251 [39]): Active
